Test results: US7572436B1, “Thionin as an antineoplastic and immunostimulant” (priority 2000, dated 2009)
Where no end group is shown, it is not given here.

Key:
[1] = tested on: IL-1; assay: ELISA of IL-1 production by splenocytes; type: cell-based, Balb C murine; settings: 48 hours, PT 0.05 μg/ml
Method: Identical plates are set up for an immunoassay and a mitogen assay. Mouse splenocytes and immuno-stimulating drugs are plated in duplicate wells (immunoassay) and triplicate wells (mitogen assay) in 96-well microplates as described above. The incubation at 37° C. in a humidified 5% CO2 incubator may vary from three to five days. At the end of the activation/proliferation period, the two identical plates are harvested as an immunoassay for cytokines or harvested as a mitogen assay (to which ^3H-thymidine has been added approximately 16-18 hours earlier).
Immunoassay kits used to detect IL-1β, IL-2, and IL-12 were the murine Quantikine M™ kits produced by R&D Systems (Minneapolis, Minn.). The general procedure is the same for all interleukin cytokines, and is described in the instructions provided by the manufacturer. All reagents are used at room temperature, and are prepared according to kit instructions.
The immunoassay plate is centrifuged at 200×g to pellet all cells. A 50 μl aliquot of Assay Diluent is first added to the center of each special enzyme-coated well supplied with the kit. Next, 50 μl of standard, control or test sample of supernatant from the immunoassay incubation plate is added to each well. This is incubated at room temperatures for two hours.
Liquid is aspirated from the wells, and the wells are washed five times with surfactant diluted 1:25 with distilled water. A 100 μL aliquot of Conjugate is added to each well and incubated two hours at room temperature. The wells are again aspirated and each well washed five times.
One hundred microliters of Substrate Solution are added to each well and incubated 30 minutes at room temperature. Stop Solution (100 μl) is then added to each well. The color change is light blue to yellow (activity). The plate is read for absorbence at 450 nm and at 540 nm for background readings.
To calculate the results, the duplicate readings for each pair of standard, control, and test samples are averaged and the average background optical density readings are subtracted. A standard curve is constructed for the cytokine by plotting the mean absorbence for each standard on the y-axis against the concentration on the x-axis and drawing a best-fit curve. Picograms of cytokine are determined from the standard curve. Mitogenic activity determined from the cpm of ^3H-thymidine is compared to the concentrations of cytokine in the experimental samples in the corresponding immunoassay.
One measure of macrophage activation is the production of the cytokine interleukin-1 (IL-1) and also interleukin-12 (IL-12). Incubation of 3×10^5 Balb C murine spleen cells with 0.05 μg/ml PT was performed for 48 hours. The supernatant fluid was assayed with commercial ELISA kits for IL-1 and IL-12. […] Some experiments gave less […] and some more. This is likely a reflection of the state of the immune system in the experimental mice. The addition of KLH, an effective antigen, increased both IL-1 and IL-12 production, and the addition of PT along with the KLH further increased the production of these cytokines.

[2] = tested on: T cells in the spleen and thymus; assay: FITC Thy-1.2 staining of T cells after ip injection; type: in vivo, Swiss Webster mice
Method: Using sterile technique the spleen or thymus was removed from a mouse euthanized by CO2 gas. The organ was teased apart to collect splenocytes or thymocytes, respectively. The cells were treated with red cell lysing buffer at 37° C. to remove the erthyrocytes, then washed several times in culture medium, RPMI-10. The cells were counted using Trypan Blue exclusion to determine viable cell yield (as described above) and resuspended in PBS/1% BSA/0.1% sodium azide buffer (pH 7.2) at 2×10^7 cells/ml.
To a microfuge tube, in ice, was added 100 μl of cell suspension (2×10^7 cells/ml). Five microliters of FcγR Block (CD16/CD32 Block; Pharmingen, San Diego, Calif.), diluted to 50 μg/ml with PBS/BSA/Azide Buffer, is added. The tube was gently mixed and kept on ice for three minutes.
One hundred microliters of Thy 1.2 FITC stain (10 μg/ml) were added and the tube was gently vortexed. Cells were stained for 30 minutes at 4° C., followed by centrifugation in a microfuge centrifuge at 4500 rpm for three minutes. The cells were washed twice with 500 μl ice-cold PBS/BSA/Azide buffer, and resuspended each time by gentle vortexing.
One hundred microliters of 1% paraformaldehyde (in PBS) were added to the cell pellet, and the cells were thoroughly mixed, then incubated 20 minutes at 4° C. The cells were then washed once with 500 μl of 2.19% glycine and resuspended in 500 μl of sterile PBS.
Fifteen microliters of the stained cell suspension were placed as two non-overlapping spots on a 1-mm thick glass slide that had been cleaned with ethanol. The cell droplets were allowed to dry without spreading or using a cover slip. The slides were air-dried in a hood, covered with aluminum foil to exclude light (in order to prevent photobleaching). If the slide was pre-cleaned and dried correctly, the droplets will naturally dry to a diameter of about 10 mm. The slides should be read within one week.
Cells were evaluated using a Zeiss oil-immersion microscope (UV-lamp, filter #47; Carl Zeiss Inc., Thornwood, N.Y.). Non-stained cells appeared medium-brown in color on a dark background. […] Partially stained cells that have a partial ring were counted separately. The percentage of non-stained, partially stained, and completely stained cells was determined. At least 200 cells per slide were scored, but usually about 300-400 cells were counted.
Data set out in Table 4, and discussed above, indicate that PT stimulates mitogen activity with murine splenocytes in vitro. This could come about through the action of activated macrophages on T cells by IL-1 production and antigen presentation to the T cells. […] T cells were detected with fluorescent-labeled (FITC) Thy 1.2 monoclonal antibody, which is a general antibody for all T cells. The cells were counted manually with a fluorescent microscope, and the data are divided into cells with no stain (no fluorescence), cells with partial staining (medium fluorescence), and cells with intense staining (high fluorescence). The mice were injected with the indicated amount of PT intraperitoneally and the animals sacrificed after three days to obtain the spleen and thymus.

**Q.** “Pyrularia thionin (KSCCRNTWARNCYNVCRLPGTISREICAKKCDCKIISGTTCPSDYPK; ends and bridges not checked; also: labeled with 125I) [PT]” was tested. Which IL-1 ([1]; Experiment 1, KLH 10 μg/ml, control 3.9) did it give?
**A.** 6.0 ± 0.2 pg/mL

**Q.** And the IL-1 ([1]; Experiment 3, control 2)?
**A.** 2.4 ± 0 pg/mL

**Q.** And the IL-1 ([1]; Experiment 4, KLH (20 mg/ml), control 9)?
**A.** 14 ± 0.9 pg/mL

**Q.** And the “number of T cells in the spleen and thymus” value ([2]; 10 μg of PT injected intraperitoneally into Swiss Webster mice)?
**A.** increase in the number of T cells in the spleen and thymus

**Q.** What about the “Splenic cells, Medium Fluor.” value ([2]; Experiment 1, 7 week male mice, 10 μg PT ip, after three days, none: 13) of the same substance?
**A.** 24 ± 4.2%

**Q.** What about the “Splenic cells, High Fluor.” value ([2]; Experiment 1, 7 week male mice, 10 μg PT ip, after three days, none: 18) of the same substance?
**A.** 30 ± 5.0%

**Q.** And the “Splenic cells, No Fluor.” value ([2]; Experiment 1, 7 week male mice, 10 μg PT ip, after three days, none: 69)?
**A.** 46 ± 0.4%

**Q.** And the “Splenic cells, Medium Fluor.” value ([2]; Experiment 2, 6 month male mice, 10 μg PT ip, after three days, none: 21)?
**A.** 36 ± 2.1%

**Q.** What about the “Splenic cells, High Fluor.” value ([2]; Experiment 2, 6 month male mice, 10 μg PT ip, after three days, none: 29) of the same substance?
**A.** 32 ± 1.4%

**Q.** What about the “Splenic cells, No Fluor.” value ([2]; Experiment 2, 6 month male mice, 10 μg PT ip, after three days, none: 50) of the same substance?
**A.** 32 ± 1.1%

**Q.** And the “Splenic cells, Medium Fluor.” value ([2]; Experiment 3, 4 month females, 5 μg PT ip, after three days, none: 24)?
**A.** 28 ± 2.2%

**Q.** What about the “Thymus cells, High Fluor.” value ([2]; Experiment 3, 4 month females, 5 μg PT ip, after three days, none: 25) of the same substance?
**A.** 39 ± 2.9%

**Q.** And the “Splenic cells, High Fluor.” value ([2]; Experiment 3, 4 month females, 5 μg PT ip, after three days, none: 26)?
**A.** 31 ± 2.5%

**Q.** And the “Thymus cells, Medium Fluor.” value ([2]; Experiment 3, 4 month females, 5 μg PT ip, after three days, none: 27)?
**A.** 29 ± 1.5%

**Q.** And the “Thymus cells, No. Fluor.” value ([2]; Experiment 3, 4 month females, 5 μg PT ip, after three days, none: 48)?
**A.** 32 ± 4.4%

**Q.** What about the “Splenic cells, No Fluor.” value ([2]; Experiment 3, 4 month females, 5 μg PT ip, after three days, none: 50) of the same substance?
**A.** 41 ± 3.5%
